Measured values published in patent US9464064B2, “HCV helicase inhibitors and methods of use thereof” (University of Kansas, priority 2011, dated 2016).

Target: T1, HCV NS3 helicase NS3h_1b(con1) (Hepatitis C virus genotype 1b, UniProt Q9WMX2)
T1 construct: truncated C-terminally His-tagged NS3 proteins lacking the N-terminal protease, called NS3h; His-tag (C); made in house
Assay: MBHA screen of NCI mechanistic set library at 20 μM (percent inhibition, compound interference)
Type: biochemical
Conditions: compounds at 20 μM; for Inh. (%) (Inhibition): calculated from Equation 1
In short: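 Molecular beacon-based DNA unwinding assay; compounds screened at 20 μM in triplicate, with DMSO-only negative and 500 nM dT20 positive controls. Fluorescence (ex 643/em 670 nm) was read before and 30 min after adding ATP to 1 mM. Percent inhibition came from the change relative to DMSO controls; interference from pre-ATP fluorescence versus DMSO controls.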

[1] = MBHA with DNA substrate, assay interference calculated with Equation 2
[2] = assay interference calculated with Equation 2 (fluorescence vs DMSO-only controls before ATP)

T1 sequence (Q9WMX2 1192-1657): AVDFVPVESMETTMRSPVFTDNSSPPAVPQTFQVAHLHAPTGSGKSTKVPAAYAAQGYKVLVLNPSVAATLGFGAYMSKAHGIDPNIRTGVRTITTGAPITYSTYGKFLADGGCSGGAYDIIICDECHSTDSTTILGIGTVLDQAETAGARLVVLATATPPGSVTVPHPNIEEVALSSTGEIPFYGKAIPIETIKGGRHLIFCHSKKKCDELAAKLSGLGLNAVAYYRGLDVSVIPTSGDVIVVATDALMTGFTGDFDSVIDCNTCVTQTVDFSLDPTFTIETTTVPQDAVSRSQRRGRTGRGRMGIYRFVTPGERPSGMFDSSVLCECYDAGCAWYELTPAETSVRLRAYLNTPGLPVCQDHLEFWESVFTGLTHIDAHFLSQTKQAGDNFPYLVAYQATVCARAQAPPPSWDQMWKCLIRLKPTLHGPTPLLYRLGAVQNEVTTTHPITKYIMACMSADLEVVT

Row | Compound | Int.* (Ratio) (Interference) [1] | Inh. (%) (Inhibition) (MBHA with DNA substrate) | Inh. (%) (Inhibition) (MBHA with a DNA substrate) | Int.* (Ratio) (Interference) [2] | Inh. (%) (Inhibition) (MBHA with DNA substrate, 20 µM)
1 | O=C1c2ccccc2-c2c1c1ccccc1c(=O)n2Cc1ccccc1 [Compound 337612] | 0.97 Ratio | −16.5% |  |  | 
2 | C(=N\NC1=NCCN1)/c1c2ccccc2c(/C=N/NC2=NCCN2)c2ccccc12 [Compound 337766] | 0.65 Ratio | 70.0% |  |  | 
3 | Oc1cc2c3c(c1)c1cc4c(cc1c[n+]3CC2)OCO4.[Cl-] [Compound 338259] | 0.93 Ratio | 45.5% |  |  | 
4 | Nc1ccc(S(=O)(=O)Nc2cnc3c(Cl)cccc3n2)cc1 [Compound 339004] | 0.89 Ratio | 18.5% |  |  | 
5 | NP(=O)(Oc1c2occc2cc2ccc(=O)oc12)N(CCCl)CCCl (centres unmarked) [Compound 345081] |  |  | 9.2% | 0.95 Ratio | 
6 | CC1Oc2cc3c(-c4c(O)cc(O)c5c(O)c6c(cc45)OC(C)C(C)C6=O)c(O)cc(O)c3c(O)c2C(=O)C1C (centres unmarked) [Compound 345647] | 0.80 Ratio | −17.6% |  |  | 
7 | O=[Se]([O-])[O-].[Na+].[Na+] [Compound 347466] | 0.89 Ratio | 27.4% |  |  | 
8 | O=C1N[C@@H]2C(=C[C@H](O)[C@@H](O)[C@H]2O)c2cc3c(cc21)OCO3 [Compound 349155] | 0.98 Ratio | 4.1% |  |  | 
9 | O=C1N[C@H]2[C@H](O)[C@H](O)[C@@H](O)[C@H](O)[C@@H]2c2cc3c(c(O)c21)OCO3 [Compound 349156] | 0.95 Ratio | −10.2% |  |  | 
10 | CC(O)CCC(=O)c1ccoc1 (centres unmarked) [Compound 349438] |  |  | 10.5% | 1.01 Ratio | 
11 | COC1=C(C)C(=O)C2=C(C1=O)C(CO)N1C(C#N)C3CC4C(C1C2N1CCOC41)N3C (centres unmarked) [Compound 349644] |  |  | 7.1% | 0.91 Ratio | 
12 | Cc1ccc(S(=O)(=O)ON=C2CC(c3ccccc3)N(C)C(c3ccccc3)C2)cc1 (centres unmarked) [Compound 351306] | 0.92 Ratio | 25.4% |  |  | 
13 | C=Cc1cc(OC)c2c(c1)c(=O)oc1c2cc(OC)c2c(O)ccc(C3OC(C)C(O)C(C)(O)C3O)c21 (centres unmarked) [Compound 354844] | 0.93 Ratio | 32.6% |  |  | 
14 | Cc1ccc2c(c1)C1(C)OC(C=CC1=O)O2 (centres unmarked) [Compound 359892] | 0.98 Ratio | −0.7% |  |  | 
15 | CC1(C)C2CCC1(CS(=O)(=O)O)C(=O)C2.CN1C(c2ccccc2)CC(=NO)CC1c1ccccc1 (centres unmarked) [Compound 363744] | 1.04 Ratio | 17.2% |  |  | 
16 | Cl.O=C1c2cccc(NCCCNCCO)c2C(=O)c2cccc(NCCCNCCO)c21 [Compound 363998] | 0.17 Ratio | 138.7% |  |  | 
17 | COc1ccc2c(c1)CCc1c-2n[nH]c1-c1[nH]nc2c1CCc1cc(OC)ccc1-2 [Compound 371846] | 0.86 Ratio | 2.1% |  |  | 

Row | Compound | Int.* (Ratio) (Interference) [1] | Inh. (%) (Inhibition) (MBHA with DNA substrate) | Inh. (%) (Inhibition) (MBHA with a DNA substrate) | Int.* (Ratio) (Interference) [2] | Inh. (%) (Inhibition) (MBHA with DNA substrate, 20 µM)
18 | CN1C(Cl)=NS(=O)(=O)c2ccccc21 [Compound 373853] | 0.92 Ratio | 5.1% |  |  | 
19 | CC1(C)CCCC2(C)C3=C(CCC12)C(=O)OC3 (centres unmarked) [Compound 375294] | 0.87 Ratio | 13.9% |  |  | 
20 | Nc1ccn([C@@H]2C=C(CO)[C@@H](O)[C@H]2O)c(=O)n1 [Compound 375575] | 0.93 Ratio | 12.9% |  |  | 
21 | COc1cc2oc3cc(=O)cc4oc(-c5ccccc5)cc(c2c2c1CCC(c1ccccc1)O2)c43 (centres unmarked) [Compound 376248] |  |  | 11.4% | 0.80 Ratio | 
22 | C/C(=N\NC(=S)N1CCN(C2CCCCCC2)CC1)c1ccccn1 [Compound 376265] | 1.02 Ratio | −13.7% |  |  | 
23 | CC1(C)NC(=O)N(CCCCCCN2C(=O)NC(C)(C)C2=O)C1=O [Compound 376791] | 1.08 Ratio | −7.3% |  |  | 
24 | C=C(CN(C)C)C(=O)c1ccccc1Cl.Cl [Compound 382007] | 0.85 Ratio | 22.9% |  |  | 
25 | C=C1CC[C@@H]2[C@](C)(CO)[C@H](O)CC[C@@]2(C)[C@@H]1C/C=C1/C(=O)OC[C@H]1O [Compound 383468] |  |  | 9.4% | 0.98 Ratio | 
26 | O=C1C=Cc2ncccc2C1=O [Compound 400944] |  |  | −6.2% | 0.84 Ratio | 
27 | CC1=C2C(=CC(C)(C)[C@@H]2O)C(=O)[C@](C)(O)C12CC2 [Compound 400978] | 1.10 Ratio | 17.9% |  |  | 
28 | COc1cc([C@H]2c3cc4c(cc3C[C@@H]3COC(=O)[C@H]32)OCO4)cc(OC)c1OC [Compound 403148] | 0.94 Ratio | 16.8% |  |  | 
29 | Nc1ncnc2c1ncn2C1OC(CO)C(O)C1O (centres unmarked) [Compound 404241] | 1.06 Ratio |  |  |  | −11.9%
30 | N#CC(=C1C=CC(=NO)C=C1)c1ccc(Cl)cc1 [Compound 405158] |  |  | 10.9% | 1.09 Ratio | 
31 | CC(=O)OC1CC(n2cc(F)c(=O)[nH]c2=O)OC1CO (centres unmarked) [Compound 407335] | 0.88 Ratio | 3.5% |  |  | 
32 | CC12CCC(O)CC1CCC1C2CCC2(C)C(C3=CC(=O)OC3)CCC12O (centres unmarked) [Compound 407806] | 1.00 Ratio | −11.1% |  |  | 
33 | CC(C)(O)C=CC(=O)C(C)(O)C1C(O)CC2(C)C3CC=C4C(C=C(O)C(=O)C4(C)C)C3(C)C(=O)CC12C (centres unmarked) [Compound 521777] | 0.90 Ratio | 5.8% |  |  | 

Next, values leading:

Row | Int.* (Ratio) (Interference) [1] | Inh. (%) (Inhibition) (MBHA with DNA substrate) | Inh. (%) (Inhibition) (MBHA with a DNA substrate) | Int.* (Ratio) (Interference) [2] | Inh. (%) (Inhibition) (MBHA with DNA substrate, 20 µM) | Compound
34 | 0.29 Ratio | 2.3% |  |  |  | CN(C)c1ccc2c(SCC(=O)OCC(=O)[C@@]3(O)CC[C@H]4[C@@H]5CCC6=CC(=O)C=C[C@]6(C)[C@H]5C(=O)C[C@@]43C)c3ccc(N(C)C)cc3nc2c1 [Compound 337851]
35 |  |  | 7.0% | 0.93 Ratio |  | COc1nc(C(Cl)(Cl)Cl)c(Cl)c(OC)c1Cl [Compound 338720]
36 | 0.91 Ratio | −8.7% |  |  |  | O=C(CCCN1CCC(C(O)c2ccc(F)cc2)CC1)c1ccc(F)cc1 (centres unmarked) [Compound 343513]
37 |  |  | −19.4% | 1.08 Ratio |  | COc1cc(C(C)c2cc3c(cc2OCCO)OCO3)cc(OC)c1OC (centres unmarked) [Compound 352876]
38 |  |  | 7.0% | 0.94 Ratio |  | Nc1ncnc2c([C@@H]3O[C@H](CO)[C@@H](O)[C@H]3O)c[nH]c12 [Compound 352890]
39 | 0.94 Ratio | 1.7% |  |  |  | CCOc1ccc(C(C)c2cc3c(cc2OC)OCO3)cc1 (centres unmarked) [Compound 353648]
40 | 0.99 Ratio | 2.7% |  |  |  | NC(=O)C1=C[C@H]2[C@H]3C=C[C@@]2(O)C(=O)O[C@@H]3O1 [Compound 357683]
41 |  |  | 7.3% | 0.45 Ratio |  | CCN(CC)Cc1cc(N=Nc2c(O)ccc3c(N=Nc4ccc(O)c(CN(CC)CC)c4)c(O)ccc23)ccc1O.Cl [Compound 359463]
42 | 1.03 Ratio | 21.8% |  |  |  | CN1CCN(CN2C(=O)C3C4C=CC(C3C2=O)C2C3C(=O)N(CN5CCN(C)CC5)C(=O)C3C42)CC1 (centres unmarked) [Compound 361813]
43 | 1.08 Ratio | 22.2% |  |  |  | COC(=O)NC1C(C)OC(OC2C/C=C(/C)C3C=CC4C(OC5CC(OC6CC(O)C(OC7CC(O)C(OC)C(C)O7)C(C)O6)C(O)C(C)O5)C(C)CC(C)C4C3(C)/C(O)=C3\C(=O)OC4(CC(C)C(CO)=CC4/C=C\2C)C3=O)CC1(C)[N+](=O)[O-] (centres unmarked) [Compound 363182]
44 | 0.95 Ratio | 2.8% |  |  |  | N#CC(=S)Nc1ccc(F)cc1 [Compound 369317]
45 | 0.95 Ratio | −0.4% |  |  |  | Cc1ccc(NC(=S)C#N)c(C)c1 [Compound 369318]
46 | 0.97 Ratio | 3.2% |  |  |  | Cc1ccc(NC(=O)c2cc3ccccc3c(N=Nc3ccccc3O)c2O)c(C)c1 [Compound 374898]
47 |  |  | 11.6% | 0.89 Ratio |  | N#CC(=S)Nc1ccc(Cl)c(Cl)c1 [Compound 379531]
48 | 0.90 Ratio | 19.2% |  |  |  | Br.CCN(CC)CC(C)(C)C(=O)/C=C/c1ccc(C)cc1 [Compound 382766]
49 |  |  | −4.0% | 0.93 Ratio |  | C[C@@H]1CC[C@H]2C(C)(C)[C@H]3C[C@@]12CC[C@@]3(C)O [Compound 403883]
50 | 1.10 Ratio | 1.7% |  |  |  | OCC1OC(n2cnc3c(=S)nc[nH]c32)C(O)C1O (centres unmarked) [Compound 406021]
51 | 0.90 Ratio | 19.4% |  |  |  | O=c1c(O)c(-c2ccc(O)c(O)c2)oc2cc(O)ccc12 [Compound 407010]
52 |  |  | −29.4% | 1.05 Ratio |  | Cc1cc(O)c2c(c1)C(=O)c1cc(O)cc(O)c1C2=O [Compound 408120]
